Reference: patent US11980620B2, “Compounds and methods for treatment of Diamond Blackfan anemia” (THE CHILDREN'S MEDICAL CENTER CORPORATION, priority 2017, dated 2024)

Tests used:
CB CD34+ cells = type: in vivo, NSG mice
Protocol: (FIG. 10A) SMER28 rescues RBC output in rps29^+/− zebrafish embryos. The level of hemoglobin in the yolk sac was visualized 40hpf with benzidine staining. Images are representative of the proportion of embryos indicated (of total counted). (FIG. 10B) Quantitation of SMER28 rescue for a range of 0.1-1 μM, with embryos grouped by high, medium, and low levels of hemoglobin staining. (FIG. 10C) Peripheral blood (PB) RBC counts and hematocrit in mice with irradiation-induced anemia. Mice were treated with the PEG400-based vehicle containing DMSO (VEH) (n=11), 1 mg/kg Dex (sodium-phosphate) (n=13), or 10 mg/kg SMER28 (n=9) for 3 weeks, bled, and assessed. Data are combined from 3 independent experiments. (FIG. 10D) Erythroid cells as proportion of the human graft in mice transplanted with DBA CD34-5F progenitors, and treated as in (FIG. 1c). (FIG. 10E) Levels of human engraftment in NSG mouse bone marrow (BM) transplanted with CB CD34^+ cells. Mice were treated with DMSO plus vehicle (VEH) (n=10), 1 mg/kg Dex (sodium-phosphate) (n=6), or 2 mg/kg SMER28 (n=11) for 4 weeks. (FIG. 10F) The proportion of erythroid, myeloid, and lymphoid (B cells) lineages within the human graft in vehicle- and SMER28-treated mice transplanted with CB CD34^+ cells. Only the effect on the erythroid lineage was significant. Data in FIGS. 10E-10G are pooled from 2 independent experiments. For all panels, *p<0.05, * *p<0.01.
Drug treatments. SMER28 was purchased from Tocris and diluted in 10 mM aliquots in DMSO. The final concentration for CD34-5F and CB CD34^+erythroid treatments was 0.2-10 μM as indicated in the text. The final concentration for K562 cell treatments was 20-40 μM. Ferric citrate (1-50 μM) and deferoxamine (100-200 μM) (Sigma) were dissolved in PBS and added on days 0-4 of “expansion” culture, and washed off prior to erythroid stage I (days 4-9) differentiation. For in vivo experiments, SMER28 aliquots were diluted in vehicle solution: 30% PEG-400, 5% propylene glycol, and 0.5% Tween-80. Dosing for human xenograft experiments was 2 mg/kg; for mouse models 10-20 mg/kg. Dexamethasone was purchased as Dex-sodium phosphate (DexSP) water-soluble formulation (Santa Cruz), and diluted in PBS vehicle (1 mg/kg). NSG mice were sub-lethally irradiated at 275 rads, and administered 100 μl of drug or vehicle by oral gavage daily.

[1] = tested on: CD34-5F progenitors with ATG5 knockdown; test: Erythroid differentiation of CD34-5F cells transduced with shRNAs for ATG5; type: cell-based, human; conditions: SMER28 10 μM; p=0.005
Protocol: (FIG. 13A) Induction of autophagy by SMER28 (40 μM) monitored by protein levels of p62, LC3-I, and LC3-II after 24 hours. Cells were also treated with 5-FU (100 nM) to induce autophagy, or inhibitor of transcription actinomycin D (ActD; 100 nM). (FIG. 13B) Induction of autophagy by SMER28 (40 μM) monitored by protein levels of p62, LC3-I, and LC3-II after 24 hours treatment with or without lysosomal blockade with bafilomycin A (200 nM for 4 hours). Untreated samples are shown at higher exposure, to capture dynamic changes in the LC3-II levels. Rapamycin (200 nM) is a positive control. LC3-II levels relative to GAPDH are quantitated on the right. (FIG. 13C) Erythroid differentiation of CD34-5F cells transduced with shRNAs for luciferase (LUC) or ATG5±SMER28. Representative flow plots and quantitation showing the number of erythroid cells induced by SMER28 (10 μM) normalized to DMSO. 2 control luciferase shRNAs and 2 ATG5 shRNAs are included (knockdown efficiency in hematopoietic cells of 58% and 50%, respectively), each with 2 independent lines; p=0.005, 3 independent experiments. (FIG. 13D) Atg5 deficiency causes anemia in zebrafish. […] Representative images (left), and quantitation (right) with embryos grouped by high, medium, and low levels of benzidine staining. […]

## C=CCNc1ncnc2ccc(Br)cc12 [SMER28, 6-Bromo-N-2-propenyl-4-quinazolinam]
CB CD34+ cells; 2 mg/kg SMER28 for 4 weeks
  distribution of myeloid and lymphoid lineages in human graft: did not affect
CB CD34+ cells; 2 mg/kg SMER28 for 4 weeks, vehicle 5.5%, p=0.05
  erythroid contribution to human graft (RBCs as proportion of human graft): 13.0%
CB CD34+ cells; 2 mg/kg for 4 weeks, ns vs vehicle
  human chimerism in bone marrow: 25.2%
[1]
  effect of SMER28 on erythroid differentiation after knockdown of ATG5: significantly reduced
